According to patent US20120082632A1, “Topical drug delivery system with dual carriers” (priority 2010, published 2012):

Legend:
[1] = tested on: HL-60 cells; conditions: cited from earlier work
[2] = tested on: Staph aureus, MRSA, Klebsiella pneumoniae, E. coli, Proteus vulgaris, Pseudomonas aeruginosa, Enterobacter cloacae, Acinetobacter lwoffi, Acinetobacter …; test: In-vitro comparison of Lots with different anti-oxidant amounts and control agents (FIGS. 16-27); assay type: cell-based; conditions: identical size drops; FIG. 16 Staph aureus, FIG. 17 MRSA, FIGS. 18-24 gram-negative cultures, FIG. 25 Enterococcus faecalis
[3] = tested on: MRSA infection and Grade I diabetic ulcer of the left hallux with cellulitus; test: Study III: human field study, diabetic foot lesion of great toe; assay type: in vivo; conditions: IV; 8 days following admission
Protocol: In this embodiment, the additional ingredient to hasten a third therapeutic tissue healing effect was added. This embodiment used vitamin D in a small but medically efficacious amount.

[4] = tested on: mouse embryonic stem cells and embryoid bodies; conditions: cited from earlier work

Row | Compound | amount at which desired cellular responses occurred [1] | subsequent retinoid-induced TGM2 expression after priming by pretreatment [1] | zones of inhibition of control agents compared with the formulations of the invention [2] | patient response to treatment for MRSA [3] | effect on mRNA and protein expression in epigenetic profiles [4]
1 | vitamin D | about 100 nM | increases |  |  | 
2 | CN[C@H](CC(C)C)C(=O)N[C@H]1C(=O)N[C@@H](CC(N)=O)C(=O)N[C@H]2C(=O)N[C@H]3C(=O)N[C@H](C(=O)N[C@H](C(=O)O)c4cc(O)cc(O)c4-c4cc3ccc4O)[C@H](O)c3ccc(c(Cl)c3)Oc3cc2cc(c3O[C@@H]2O[C@H](CO)[C@@H](O)[C@H](O)[C@H]2O[C@H]2C[C@](C)(N)[C@H](O)[C@H](C)O2)Oc2ccc(cc2Cl)[C@H]1O [Vancomycin] |  |  | considerably reduced zones of inhibition | did not respond | 
3 | CC[C@H]1OC(=O)[C@H](C)[C@@H](O[C@H]2C[C@@](C)(OC)[C@@H](O)[C@H](C)O2)[C@H](C)[C@@H](O[C@@H]2O[C@H](C)C[C@H](N(C)C)[C@H]2O)[C@](C)(O)C[C@@H](C)C(=O)[C@H](C)[C@@H](O)[C@]1(C)O [Erythromycin] |  |  | considerably reduced zones of inhibition |  | 
4 | C[S+](C)[O-] [DMSO, dimethyl sulfoxide] | less than 2% | increases |  |  | upregulation of mRNA and protein expression
5 | CO[C@@]1(NC(=O)Cc2cccs2)C(=O)N2C(C(=O)O)=C(COC(N)=O)CS[C@@H]21 [Cefoxicillin] |  |  | considerably reduced zones of inhibition |  | 
